Data published in the Kinase Knowledgebase extract (Sharma et al. 2016).

How the values were obtained:
PIK3CA (human) [1] = molecular target: PIK3CA (human) (UniProt P42336); test: Enzyme Assay
PIK3CB (Human) [2] = molecular target: PIK3CB (Human) (UniProt P42338); test: Enzyme Assay
PIK3CD (Human) [3] = molecular target: PIK3CD (Human) (UniProt O00329); test: Enzyme Assay
PIK3CG (human) = PIK3CG (human) (UniProt P48736); test: Enzyme Assay
PIK3CD (Human) [4] = molecular target: PIK3CD (Human) (UniProt O00329); test: Cell-Based Assay; conditions: raji
PIK3CA (human) [5] = molecular target: PIK3CA (human) (UniProt P42336); test: Cell-Based Assay; conditions: skov-3
PIK3CB (Human) [6] = molecular target: PIK3CB (Human) (UniProt P42338); test: Cell-Based Assay; conditions: 786-o

Chain of PIK3CB (Human) (P42338 whole entry, looked up): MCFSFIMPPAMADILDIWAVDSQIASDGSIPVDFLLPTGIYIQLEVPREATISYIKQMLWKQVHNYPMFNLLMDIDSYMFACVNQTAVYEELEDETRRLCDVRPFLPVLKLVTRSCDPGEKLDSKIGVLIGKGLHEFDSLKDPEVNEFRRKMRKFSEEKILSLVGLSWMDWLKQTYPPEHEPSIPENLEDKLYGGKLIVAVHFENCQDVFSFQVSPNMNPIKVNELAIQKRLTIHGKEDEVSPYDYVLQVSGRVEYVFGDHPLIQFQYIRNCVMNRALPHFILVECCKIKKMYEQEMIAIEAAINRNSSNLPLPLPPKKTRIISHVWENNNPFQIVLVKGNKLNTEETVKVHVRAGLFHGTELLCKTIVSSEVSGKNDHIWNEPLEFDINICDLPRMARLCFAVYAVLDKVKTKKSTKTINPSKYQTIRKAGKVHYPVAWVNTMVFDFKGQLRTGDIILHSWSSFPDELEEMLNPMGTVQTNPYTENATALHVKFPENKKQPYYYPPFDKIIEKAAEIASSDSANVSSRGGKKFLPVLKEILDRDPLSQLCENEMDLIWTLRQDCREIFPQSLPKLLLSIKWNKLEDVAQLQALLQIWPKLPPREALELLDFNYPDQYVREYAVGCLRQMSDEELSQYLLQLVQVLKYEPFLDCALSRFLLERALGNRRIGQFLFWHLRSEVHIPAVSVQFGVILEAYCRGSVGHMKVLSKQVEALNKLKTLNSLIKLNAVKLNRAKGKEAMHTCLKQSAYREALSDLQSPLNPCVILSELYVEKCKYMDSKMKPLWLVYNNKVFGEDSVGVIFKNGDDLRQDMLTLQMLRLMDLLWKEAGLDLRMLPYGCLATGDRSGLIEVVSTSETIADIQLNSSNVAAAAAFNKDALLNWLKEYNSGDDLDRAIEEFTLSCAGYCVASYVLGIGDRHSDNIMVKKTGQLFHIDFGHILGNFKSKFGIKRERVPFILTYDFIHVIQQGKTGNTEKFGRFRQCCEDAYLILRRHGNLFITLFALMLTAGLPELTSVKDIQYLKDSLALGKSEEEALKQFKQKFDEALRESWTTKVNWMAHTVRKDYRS
Chain of PIK3CD (Human) (O00329 whole entry, looked up): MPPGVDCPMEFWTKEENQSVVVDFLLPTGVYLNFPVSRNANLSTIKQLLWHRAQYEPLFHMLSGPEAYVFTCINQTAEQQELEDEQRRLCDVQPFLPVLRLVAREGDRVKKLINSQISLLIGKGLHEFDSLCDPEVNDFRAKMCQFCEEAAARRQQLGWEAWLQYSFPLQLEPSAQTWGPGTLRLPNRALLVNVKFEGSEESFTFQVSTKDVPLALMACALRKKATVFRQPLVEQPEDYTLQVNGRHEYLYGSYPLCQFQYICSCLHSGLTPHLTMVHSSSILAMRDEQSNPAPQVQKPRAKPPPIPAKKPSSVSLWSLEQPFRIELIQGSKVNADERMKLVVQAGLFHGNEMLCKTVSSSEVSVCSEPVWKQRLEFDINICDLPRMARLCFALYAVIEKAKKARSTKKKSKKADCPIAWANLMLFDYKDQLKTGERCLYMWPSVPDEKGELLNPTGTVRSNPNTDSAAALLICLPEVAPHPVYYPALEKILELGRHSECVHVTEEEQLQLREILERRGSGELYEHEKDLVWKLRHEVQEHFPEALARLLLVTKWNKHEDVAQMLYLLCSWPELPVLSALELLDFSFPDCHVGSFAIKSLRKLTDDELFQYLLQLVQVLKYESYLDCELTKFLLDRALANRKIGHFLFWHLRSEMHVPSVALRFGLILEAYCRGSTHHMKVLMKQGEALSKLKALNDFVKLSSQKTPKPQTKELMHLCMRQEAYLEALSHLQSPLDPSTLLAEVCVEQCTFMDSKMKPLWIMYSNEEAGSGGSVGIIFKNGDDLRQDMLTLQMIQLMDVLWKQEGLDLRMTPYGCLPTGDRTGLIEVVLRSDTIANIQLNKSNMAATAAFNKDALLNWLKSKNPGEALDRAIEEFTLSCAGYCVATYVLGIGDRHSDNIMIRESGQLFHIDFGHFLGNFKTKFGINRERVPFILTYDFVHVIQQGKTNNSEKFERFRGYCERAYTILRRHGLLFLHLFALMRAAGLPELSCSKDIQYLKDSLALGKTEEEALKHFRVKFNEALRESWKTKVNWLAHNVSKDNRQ
Chain of PIK3CG (human) (P48736 whole entry, looked up): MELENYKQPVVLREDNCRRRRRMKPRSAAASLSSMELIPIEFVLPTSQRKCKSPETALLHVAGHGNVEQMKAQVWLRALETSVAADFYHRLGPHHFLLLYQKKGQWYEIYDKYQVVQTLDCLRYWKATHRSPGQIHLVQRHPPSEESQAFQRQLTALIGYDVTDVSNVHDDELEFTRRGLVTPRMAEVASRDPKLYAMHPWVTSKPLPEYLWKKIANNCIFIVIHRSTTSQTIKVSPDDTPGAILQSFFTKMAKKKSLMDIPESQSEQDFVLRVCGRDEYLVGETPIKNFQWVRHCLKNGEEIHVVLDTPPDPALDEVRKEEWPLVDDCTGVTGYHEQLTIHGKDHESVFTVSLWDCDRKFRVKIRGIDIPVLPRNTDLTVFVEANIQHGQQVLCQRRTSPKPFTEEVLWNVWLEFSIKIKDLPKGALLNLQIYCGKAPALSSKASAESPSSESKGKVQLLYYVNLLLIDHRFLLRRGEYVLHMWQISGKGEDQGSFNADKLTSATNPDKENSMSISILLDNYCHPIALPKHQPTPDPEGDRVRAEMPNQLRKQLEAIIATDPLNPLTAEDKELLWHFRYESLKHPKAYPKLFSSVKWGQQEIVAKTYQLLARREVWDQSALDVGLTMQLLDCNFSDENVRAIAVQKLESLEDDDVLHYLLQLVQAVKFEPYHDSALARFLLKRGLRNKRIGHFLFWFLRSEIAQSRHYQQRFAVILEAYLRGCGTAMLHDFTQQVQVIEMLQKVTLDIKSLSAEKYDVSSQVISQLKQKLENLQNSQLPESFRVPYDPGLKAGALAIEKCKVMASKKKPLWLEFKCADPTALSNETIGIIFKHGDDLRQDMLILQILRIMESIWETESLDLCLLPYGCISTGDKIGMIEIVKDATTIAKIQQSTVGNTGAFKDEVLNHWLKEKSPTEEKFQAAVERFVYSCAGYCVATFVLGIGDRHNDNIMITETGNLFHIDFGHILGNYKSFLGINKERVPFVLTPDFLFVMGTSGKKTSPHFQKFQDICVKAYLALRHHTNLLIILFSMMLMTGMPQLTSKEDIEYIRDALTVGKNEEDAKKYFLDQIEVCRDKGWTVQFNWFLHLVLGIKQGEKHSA
Chain of PIK3CA (human) (P42336 whole entry, looked up): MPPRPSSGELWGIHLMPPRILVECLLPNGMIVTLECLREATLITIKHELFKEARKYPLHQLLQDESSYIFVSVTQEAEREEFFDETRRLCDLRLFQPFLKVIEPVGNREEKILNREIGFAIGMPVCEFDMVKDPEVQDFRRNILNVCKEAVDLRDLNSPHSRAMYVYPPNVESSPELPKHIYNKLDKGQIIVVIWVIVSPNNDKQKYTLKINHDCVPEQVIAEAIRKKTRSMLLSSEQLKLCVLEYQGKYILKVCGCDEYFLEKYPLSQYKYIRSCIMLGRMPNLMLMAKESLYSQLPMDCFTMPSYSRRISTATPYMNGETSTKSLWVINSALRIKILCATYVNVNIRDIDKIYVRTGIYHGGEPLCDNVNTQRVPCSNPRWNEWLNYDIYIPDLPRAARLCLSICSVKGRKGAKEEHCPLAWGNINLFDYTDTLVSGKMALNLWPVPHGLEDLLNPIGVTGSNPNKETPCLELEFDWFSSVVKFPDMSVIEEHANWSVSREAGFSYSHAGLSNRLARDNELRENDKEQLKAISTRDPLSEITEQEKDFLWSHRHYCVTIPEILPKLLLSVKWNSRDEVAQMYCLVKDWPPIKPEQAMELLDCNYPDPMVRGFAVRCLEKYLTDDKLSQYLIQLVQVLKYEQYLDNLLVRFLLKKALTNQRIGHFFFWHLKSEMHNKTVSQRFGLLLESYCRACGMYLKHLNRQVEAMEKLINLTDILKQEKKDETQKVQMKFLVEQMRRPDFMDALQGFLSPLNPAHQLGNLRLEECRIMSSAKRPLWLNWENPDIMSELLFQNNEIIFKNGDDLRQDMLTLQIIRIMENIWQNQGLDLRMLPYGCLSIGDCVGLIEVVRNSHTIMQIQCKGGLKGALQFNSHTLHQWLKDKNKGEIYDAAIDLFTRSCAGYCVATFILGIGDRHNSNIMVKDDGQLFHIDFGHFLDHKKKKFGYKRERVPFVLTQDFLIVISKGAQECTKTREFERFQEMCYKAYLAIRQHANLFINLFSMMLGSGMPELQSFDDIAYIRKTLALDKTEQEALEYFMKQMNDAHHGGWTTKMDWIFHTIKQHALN

| Compound | IC50 (PIK3CA (human) [1]) | IC50 (PIK3CB (Human) [2]) | IC50 (PIK3CD (Human) [3]) | IC50 (PIK3CG (human)) | IC50 (PIK3CD (Human) [4]) | IC50 (PIK3CA (human) [5]) | IC50 (PIK3CB (Human) [6]) |
| --- | --- | --- | --- | --- | --- | --- | --- |
| CNC(=O)c1cccc2cc([C@H](C)Nc3ncnc4scnc34)n(-c3ccccc3)c(=O)c12 | > 10000 nM | > 10000 nM | 100 to 1000 nM | > 10000 nM |  |  |  |
| C[C@H](Nc1ncnc2scnc12)c1cc2cccc(-c3ccccn3)c2c(=O)n1-c1ccccc1 | > 10000 nM | > 10000 nM | < 100 nM | 100 to 1000 nM |  |  |  |
| C[C@H](Nc1ncnc2scnc12)c1cc2cccc(-c3cn(C)cn3)c2c(=O)n1-c1ccccc1 | > 10000 nM | > 10000 nM | 100 to 1000 nM | > 10000 nM |  |  |  |
| C[C@H](Nc1ncnc2scnc12)c1cc2cccc(-c3cnn(C)c3)c2c(=O)n1-c1ccccc1 | 100 to 1000 nM |  | < 100 nM | < 100 nM | < 100 nM | 100 to 1000 nM |  |
| C[C@H](Nc1ncnc2scnc12)c1cc2cccc(C(=O)O)c2c(=O)n1-c1ccccc1 | > 10000 nM | > 10000 nM |  |  |  |  |  |
| C[C@H](Nc1ncnc2scnc12)c1cc2cccc(C(=O)N3CCOCC3)c2c(=O)n1-c1ccccc1 | > 10000 nM | > 10000 nM | 100 to 1000 nM |  |  |  |  |
| C[C@H](Nc1ncnc2scnc12)c1cc2cccc(-c3cncc(N)c3)c2c(=O)n1-c1ccccc1 |  | > 10000 nM | < 100 nM | 100 to 1000 nM | < 100 nM |  |  |
| Cc1nc2c(N[C@@H](C)c3cc4cccc(Cl)c4c(=O)n3-c3ccccc3)ncnc2s1 | > 10000 nM | > 10000 nM | > 10000 nM | > 10000 nM |  |  |  |
| C[C@H](Nc1ncnc2scnc12)c1cc2cccc(-c3ccc(N(C)C)nc3)c2c(=O)n1-c1ccccc1 |  | > 10000 nM | < 100 nM | < 100 nM |  |  |  |
| COc1ncc(-c2cccc3cc([C@H](C)Nc4ccnc5scnc45)n(-c4ccccc4)c(=O)c23)cn1 |  | > 10000 nM | < 100 nM | 100 to 1000 nM |  |  |  |
| C[C@H](Nc1ncnc2scnc12)c1cc2cccc(-c3ccnnc3)c2c(=O)n1-c1ccccc1 |  | > 10000 nM | < 100 nM | < 100 nM |  |  |  |
| COc1ncc(-c2cccc3cc([C@H](C)Nc4ncnc5scnc45)n(-c4ccccc4)c(=O)c23)cn1 |  |  | < 100 nM | < 100 nM | < 100 nM |  |  |
| C[C@H](Nc1ncnc2scnc12)c1cc2cccc(-c3ccc(C(F)(F)F)nc3)c2c(=O)n1-c1ccccc1 | > 10000 nM | > 10000 nM | < 100 nM | 100 to 1000 nM |  |  |  |
| COc1ncc(-c2cccc3cc([C@H](C)Nc4ncnc5scnc45)n(-c4ccon4)c(=O)c23)cn1 |  |  | < 100 nM | 100 to 1000 nM | < 100 nM | 100 to 1000 nM | 100 to 1000 nM |
| CC(C)n1c([C@H](C)Nc2ncnc3scnc23)cc2cccc(-c3ccc(=O)n(C)c3)c2c1=O |  |  | < 100 nM | 100 to 1000 nM | < 100 nM | 100 to 1000 nM | 100 to 1000 nM |
| Cc1nc2c(N[C@@H](C)c3cc4cccc(Cl)c4c(=O)n3-c3cccc(F)c3)ncnc2s1 | > 10000 nM | > 10000 nM |  | > 10000 nM |  |  |  |
| C[C@H](Nc1ncnc2scnc12)c1cc2scc(-c3cnn(C)c3)c2c(=O)n1-c1ccccc1 |  | > 10000 nM | 100 to 1000 nM | 100 to 1000 nM |  |  |  |
| Cc1nc2c(N[C@@H](C)c3cc4cccc(-c5cnn(C)c5)c4c(=O)n3-c3ccccc3)ncnc2s1 | > 10000 nM | > 10000 nM |  |  |  |  |  |
| CC(C)Cn1cc(-c2cccc3cc([C@H](C)Nc4ncnc5scnc45)n(-c4ccccc4)c(=O)c23)cn1 |  | > 10000 nM | < 100 nM | 100 to 1000 nM |  |  |  |
| CC(C)n1c([C@H](C)Nc2ncnc3scnc23)cc2cccc(-c3ccnnc3)c2c1=O | > 10000 nM | > 10000 nM | 100 to 1000 nM | > 10000 nM | < 100 nM |  |  |
| Cc1sc2ncnc(N[C@@H](C)c3cc4cccc(Cl)c4c(=O)n3-c3ccccc3)c2c1C | > 10000 nM | > 10000 nM | < 100 nM |  |  |  |  |
| CC(C)n1cc(-c2cccc3cc([C@H](C)Nc4ncnc5scnc45)n(-c4ccccc4)c(=O)c23)cn1 |  | > 10000 nM | < 100 nM | 100 to 1000 nM |  |  |  |
| C[C@H](Nc1ncnc2scnc12)c1cc2cccc(C(=O)N(C)C)c2c(=O)n1-c1ccccc1 | > 10000 nM | > 10000 nM | 100 to 1000 nM | > 10000 nM |  |  |  |
| COc1ncc(-c2cccc3cc([C@H](C)Nc4ncnc5scnc45)n(-c4cccc(F)c4)c(=O)c23)cn1 |  | > 10000 nM | < 100 nM | 100 to 1000 nM |  |  |  |
| C[C@H](Nc1ncnc2scnc12)c1cc2cccc(-c3ccc(F)c(F)c3)c2c(=O)n1-c1ccccc1 |  | > 10000 nM | < 100 nM | < 100 nM |  |  |  |
| C[C@H](Nc1ncnc2scnc12)c1cc2cccc(-c3cnn(CCN4CCOCC4)c3)c2c(=O)n1-c1ccccc1 |  | > 10000 nM | < 100 nM | < 100 nM |  |  |  |
| C[C@H](Nc1ncnc2scnc12)c1cc2cccc(-c3cnc4c(c3)CCCC4)c2c(=O)n1-c1ccccc1 | > 10000 nM | > 10000 nM |  |  |  |  |  |

More lines, now with the values ahead:

| IC50 (PIK3CA (human) [1]) | IC50 (PIK3CB (Human) [2]) | IC50 (PIK3CD (Human) [3]) | IC50 (PIK3CG (human)) | IC50 (PIK3CD (Human) [4]) | IC50 (PIK3CA (human) [5]) | IC50 (PIK3CB (Human) [6]) | Compound |
| --- | --- | --- | --- | --- | --- | --- | --- |
| 100 to 1000 nM | < 100 nM | < 100 nM | < 100 nM |  |  |  | C[C@H](Nc1ncnc2scnc12)c1cc2cccc(Cl)c2c(=O)n1-c1ccccc1 |
| 100 to 1000 nM | < 100 nM | < 100 nM | < 100 nM |  |  |  | C[C@H](Nc1ncnc2scnc12)c1cc2cccc(Cl)c2c(=O)n1C1CC1 |
| > 10000 nM | > 10000 nM | 100 to 1000 nM |  |  |  |  | C[C@H](Nc1ncnc2scc(-c3ccccc3)c12)c1cc2cccc(Cl)c2c(=O)n1-c1ccccc1 |
| > 10000 nM | > 10000 nM | 100 to 1000 nM | > 10000 nM | < 100 nM |  |  | Cc1ncc(-c2cccc3cc([C@H](C)Nc4ncnc5scnc45)n(-c4ccon4)c(=O)c23)cn1 |
| > 10000 nM | > 10000 nM | < 100 nM | 100 to 1000 nM |  |  |  | C[C@H](Nc1ncnc2scnc12)c1cc2cccc(-c3cnc4nccnc4c3)c2c(=O)n1-c1ccccc1 |
| 100 to 1000 nM | 100 to 1000 nM | < 100 nM | 100 to 1000 nM |  |  |  | COc1cncc(-c2cccc3cc([C@H](C)Nc4ncnc5scnc45)n(C4CC4)c(=O)c23)c1 |
| 100 to 1000 nM | 100 to 1000 nM | < 100 nM | < 100 nM |  |  |  | C[C@H](Nc1nc(N)nc2scnc12)c1cc2cccc(-c3cnn(C)c3)c2c(=O)n1-c1ccccc1 |
|  | < 100 nM | < 100 nM | < 100 nM |  |  |  | C[C@H](Nc1ncnc2scnc12)c1cc2scc(Cl)c2c(=O)n1-c1ccccc1 |
| 100 to 1000 nM | 100 to 1000 nM | < 100 nM | < 100 nM |  |  |  | C[C@H](Nc1ccnc2scnc12)c1cc2cccc(Cl)c2c(=O)n1-c1ccccc1 |
| 100 to 1000 nM | 100 to 1000 nM | < 100 nM | < 100 nM |  |  |  | C[C@H](Nc1ncnc2scnc12)c1cc2cccc(-c3cnc4ccccc4c3)c2c(=O)n1-c1ccccc1 |
| 100 to 1000 nM | 100 to 1000 nM | < 100 nM | < 100 nM |  |  |  | C[C@H](Nc1ncnc2scnc12)c1cc2cccc(-c3cnn(C)c3)c2c(=O)n1C1CC1 |
| > 10000 nM | 100 to 1000 nM | < 100 nM | 100 to 1000 nM | < 100 nM |  |  | C[C@H](Nc1ncnc2scnc12)c1cc2cccc(Cl)c2c(=O)n1-c1ccon1 |
|  | 100 to 1000 nM | < 100 nM | < 100 nM |  |  |  | C[C@H](Nc1ncnc2scnc12)c1cc2cccc(C=O)c2c(=O)n1-c1ccccc1 |
| < 100 nM | 100 to 1000 nM | < 100 nM | < 100 nM |  |  |  | COc1cncc(-c2cccc3cc([C@H](C)Nc4ncnc5scnc45)n(-c4ccccc4)c(=O)c23)c1 |
| 100 to 1000 nM | < 100 nM | < 100 nM | < 100 nM |  |  |  | C[C@H](Nc1ncnc2scnc12)c1cc2cccc(Cl)c2c(=O)n1-c1cccc(F)c1 |
| > 10000 nM | 100 to 1000 nM | < 100 nM | > 10000 nM |  |  |  | C[C@H](Nc1ncnc2scnc12)c1cc2cccc(Cl)c2c(=O)n1CCN1CCCC1 |
| 100 to 1000 nM | 100 to 1000 nM | < 100 nM | < 100 nM |  |  |  | C[C@H](Nc1ncnc2scnc12)c1cc2cccc(-c3cnc4[nH]ccc4c3)c2c(=O)n1-c1ccccc1 |
| 100 to 1000 nM | 100 to 1000 nM | < 100 nM | < 100 nM |  |  |  | C[C@H](Nc1ncnc2scnc12)c1cc2cccc(-c3ccc(N)nc3)c2c(=O)n1C1CC1 |
